In patent US12390470B2, “1-methylxanthine-based bioactive composition and method of use thereof” (Ingenious Ingredients, LP, priority 2021, dated 2025):

Tests used:
[1] = tested on: catalase; test: Catalase level in young and old rats; type: in vivo
Method: Twenty-four young (6-8 Week) and twenty-four old (14-16 Months) Swiss Albino Wistar rats were housed in an animal room at a constant temperature (22±3° C.) and humidity (30%-70%) under a 12:12 h light-dark cycle with standard laboratory diet (Purina 5L79, Rat and Mouse 18% protein; PMI Nutrition International, Brentwood, MO, USA). Distilled water was provided ad libitum. All animal experiments were reviewed and approved by the Institutional Animal Ethical Committee (IAEC) of Radiant Research Services Pvt. Ltd (Bangalore, India). All research was conducted in accordance with the guidelines of the committee for the purpose of control and supervision of experiments on animals.
After one week of acclimation, the animals were randomly divided by body weight and age into six groups (n=8 per group in each test) for oral treatment once a day, at approximately same time each day (±1 hour), for 10 consecutive days: (1) vehicle control or (2) 1-methylxanthine or (3) 1-methylxanthine plus paraxanthine. The dose administered to the rat was calculated using US Food and Drug Administration for human equivalence doses (HED), assuming a human weight of 60 kg. […] Food intake was monitored daily while water intake was ad libitum. […] Body weight was recorded weekly. […]

[2] = tested on: female wistar rats; details: rat, in vivo, 14 days
Method: An acute oral toxicity study of 1-Methylxanthine) was conducted in female wistar rats in accordance with OECD 423 guidelines. Rats were administered a single dose of 2,000 mg/kg orally and then observed individually for the first four hours, then over a period of 24 hours and once daily for 14 days. General behavior, adverse effects and mortality were observed throughout the experimental period. Body weights were recorded on test day 0 (prior to administration), day 3, day 7 and day 14. All the animals were necropsied and examined macroscopically. All the surviving animals had gained body weight by day 14 as compared to day 0. […] Based on the results, the median lethal dose of test substance in female rats after single oral treatment is 2,000 mg/kg body weight and is classified as category 5 and safe.

[3] = tested on: participants; test: Respiratory quotient, placebo-controlled crossover; type: in vivo, human
Method: All supplements were orally ingested with 8 fluid ounces of cold tap water. The order of administration for all interventions was randomized using a random allocation software to ensure randomization and to avoid order effects. After ingestion, participants completed all assessments in an identical fashion 30, 60, 90, 120, and 180 minutes after ingestion of their assigned supplement. All study visits took place between 0600-1000 hours. At least 72 hours of rest will take place between each condition.
The lower the RQ, the more fat that is being oxidized for body energy needs. The closer to 1.0 the more carbohydrate is being burned for energy needs. If numbers are lower more fat is being oxidized.

[4] = tested on: participants; test: Resting heart rate, crossover vs caffeine; type: in vivo, human
From the text: All supplements were orally ingested with 8 fluid ounces of cold tap water.

[5] = tested on: participants; test: Diastolic blood pressure, crossover vs caffeine; type: in vivo, human
Method: All supplements were orally ingested with 8 fluid ounces of cold tap water. Resting Heart Rate, Systolic and Diastolic Blood Pressure was measured at baseline, 30, 60, 90, 120 and 180 minutes after ingestion.

[6] = tested on: healthy adult male; test: Subject report during work out; type: in vivo, human; details: 200 mg prior to work out
Method: Subject was a healthy adult. Subject was administered 200 mg of 1-methylxanthine prior to work out.
During another trial subject was administered 100 mg of 1-methylxanthine together with 100 mg of paraxanthine, prior to work out.

[7] = Person one, time 0, 200 mg oral
[8] = Person two, time 0, 200 mg oral

In the case of Cn1c(=O)[nH]c2nc[nH]c2c1=O [1-methylxanthine, 1-Methyl-3H-purine-2,6-dione], the catalase levels ([1]; old rats) is reported as 32.78±1.26 U/mL, the catalase levels ([1]; young rats) is reported as 33.32±1.68 U/mL and the toxicity classification [2] is reported as “category 5”. The median lethal dose ([2]; po) was 2,000 mg/kg body weight, the “respiratory quotient reduced compared to placebo” value ([3]; 200 mg oral) was 15% and the “greater fat loss than CA” value ([3]; 200 mg oral, from respiratory quotient) was 2.3%. The “Respiratory Quotient MEAN (30-180)” value ([3]; Average) was 0.685, the “Respiratory Quotient MEAN (30-180)” value ([3]; Person one) was 0.676 and the “Respiratory Quotient” value ([3]; Person one, 30 min after ingestion) was 0.69. The “Respiratory Quotient” value ([3]; Person one, 60 min) was 0.66, the “Respiratory Quotient” value ([3]; Person one, 90 min) was 0.67 and the “Respiratory Quotient” value ([3]; Person one, 120 min) was 0.69. The “Respiratory Quotient” value ([3]; Person one, 180 min) was 0.67, the “Respiratory Quotient” value [3, 7] was 0.67 and the “Respiratory Quotient MEAN (30-180)” value ([3]; Person two) was 0.694. The “Respiratory Quotient” value ([3]; Person two, 30 min) was 0.72, the “Respiratory Quotient” value ([3]; Person two, 60 min) was 0.71 and the “Respiratory Quotient” value ([3]; Person two, 90 min) was 0.66. The “Respiratory Quotient” value ([3]; Person two, 120 min) was 0.68, the “Respiratory Quotient” value ([3]; Person two, 180 min) was 0.70 and the “Respiratory Quotient” value [3, 8] was 0.70. For the same molecule, the “heart rate change from baseline” value ([4]; 200 mg oral) was “did not increase”, the “heart rate reduced in comparison to CA” value ([4]; 200 mg oral) was 3% and the “Resting Heart Rate MEAN (30-180)” value ([4]; Average) was 57.9 bpm. The “Resting Heart Rate Mean Δ from 0” value ([4]; Average) was −9.6 bpm, the “Resting Heart Rate MEAN (30-180)” value ([4]; Person one) was 53.2 bpm and the “Resting Heart Rate Mean Δ from 0” value ([4]; Person one) was −11.8 bpm. For the same molecule, the “Resting Heart Rate Δ vs. CA” value ([4]; Person one) was −2.0 bpm, the “Resting Heart Rate” value ([4]; Person one, 30 min) was 63 bpm and the “Resting Heart Rate” value ([4]; Person one, 60 min) was 54 bpm. The “Resting Heart Rate” value ([4]; Person one, 90 min) was 49 bpm, the “Resting Heart Rate” value ([4]; Person one, 120 min) was 45 bpm and the “Resting Heart Rate” value ([4]; Person one, 180 min) was 55 bpm. For the same molecule, the “Resting Heart Rate” value [4, 7] was 65 bpm, the “Resting Heart Rate MEAN (30-180)” value ([4]; Person two) was 62.6 bpm and the “Resting Heart Rate Mean Δ from 0” value ([4]; Person two) was −2.4 bpm. For the same molecule, the “Resting Heart Rate Δ vs. CA” value ([4]; Person two) was −1.0 bpm, the “Resting Heart Rate” value ([4]; Person two, 30 min) was 61 bpm and the “Resting Heart Rate” value ([4]; Person two, 60 min) was 60 bpm. The “Resting Heart Rate” value ([4]; Person two, 90 min) was 65 bpm, the “Resting Heart Rate” value ([4]; Person two, 120 min) was 60 bpm and the “Resting Heart Rate” value ([4]; Person two, 180 min) was 62 bpm. For the same molecule, the “Resting Heart Rate” value [4, 8] was 65 bpm, the “diastolic blood pressure reduced in comparison to CA” value ([5]; 200 mg oral) was 12% and the “Diastolic Blood Pressure MEAN (30-180)” value ([5]; Average) was 70.6 mm Hg. The “Diastolic Blood Pressure Mean Δ from 0” value ([5]; Average) was −1.4 mm Hg, the “Diastolic Blood Pressure MEAN (30-180)” value ([5]; Person one) was 71.6 mm Hg and the “Diastolic Blood Pressure Mean Δ from 0” value ([5]; Person one) was −0.4 mm Hg. The “Diastolic Blood Pressure Δ vs. CA” value ([5]; Person one) was −5.0 mm Hg, the “Diastolic Blood Pressure” value ([5]; Person one, 30 min) was 71 mm Hg and the “Diastolic Blood Pressure” value ([5]; Person one, 60 min) was 68 mm Hg. The “Diastolic Blood Pressure” value ([5]; Person one, 90 min) was 69 mm Hg, the “Diastolic Blood Pressure” value ([5]; Person one, 120 min) was 71 mm Hg and the “Diastolic Blood Pressure” value ([5]; Person one, 180 min) was 79 mm Hg. For the same molecule, the “Diastolic Blood Pressure” value [5, 7] was 72 mm Hg, the “Diastolic Blood Pressure MEAN (30-180)” value ([5]; Person two) was 69.6 mm Hg and the “Diastolic Blood Pressure Mean Δ from 0” value ([5]; Person two) was −2.4 mm Hg. The “Diastolic Blood Pressure Δ vs. CA” value ([5]; Person two) was −12.2 mm Hg, the “Diastolic Blood Pressure” value ([5]; Person two, 30 min) was 79 mm Hg and the “Diastolic Blood Pressure” value ([5]; Person two, 60 min) was 62 mm Hg. For the same molecule, the “Diastolic Blood Pressure” value ([5]; Person two, 90 min) was 70 mm Hg, the “Diastolic Blood Pressure” value ([5]; Person two, 120 min) was 72 mm Hg and the “Diastolic Blood Pressure” value ([5]; Person two, 180 min) was 65 mm Hg. The “Diastolic Blood Pressure” value [5, 8] was 72 mm Hg and the “subject-reported effect during work out” value [6] was “increased focus, concentration, mood and performance”.
